Square brackets hold non-standard residues; d marks the D form. Ends that are not written are not given here.

For one experiment, the system named is Neuro-2a cells. Description: Glutamate-induced Neuro-2a cell death (LDH release). Type of experiment: cell-based, mouse. The settings on record: glutamate-induced cell death. The protocol:
Neuro-2a cells were seeded in 48-well culture plates (1.5×10^5 cells/well) for 24 h, and then cultured in 0.5 ml fresh 2% FBS-DMEM medium containing 20 μM of the present peptide (7 μg of 6-mer in 0.5 ml medium) for further 4 h. Subsequently, 100 mM glutamate (from 1 M stock and PBS as solvent) was added to cells for further 6 h. Glutamate-induced cell death was quantitatively assessed by measuring lactate dehydrogenase (LDH) activity released into the culture medium by damaged cells. LDH activity was measured using PicoProbe™ LDH-Cytotoxicity Fluorometric Assay Kit (Catalog #K314-500; BioVision) according to the instruction manuals. LDH activity was estimated using an automated microplate reader (UVmax; Molecular Devices, San Francisco, CA) by measuring the fluorescent product (Ex/Em=535/587 nm).
Briefly, cells were pretreated with the designated peptide (i.e., any of SEQ ID NOs: 2 to 11) for 4 h and then treated with 100 mM glutamate for 6 h. The cell death was detected by a commercial lactate dehydrogenase (LDH) Cytotoxicity Assay Kit. Results are depicted in FIG. 1.
On the technique in general: LDH leaks from cells whose membrane has failed.

In the next experiment the test system is STAT3. Description: Western blot of STAT3 phosphorylation in C2C12 cells. Type of experiment: cell-based, mouse. The settings on record: C2C12 myoblast cells, 5 to 20 min after stimulation. How it is done:
Cell lysis, fractionation, and SDS-PAGE were conducted in accordance with procedures described previously (Yang Y C et al., BMC Cancer 2007; 7:216). Antibodies used in this study were for Phospho-Stat3 and STAT3 (1:1000-fold dilution). Proteins of interest were detected using the appropriate IgG-HRP secondary antibody (Santa Cruz Biotechnology) and ECL reagent (Amersham Biosciences).
In general terms: A western blot detects proteins with antibodies after separation by electrophoresis.

Another experiment concerns ARPE-19 cells. Description: 4-HNE induced apoptosis of ARPE-19 cells (TUNEL staining). The settings on record: 20 μM peptide pretreatment, 25 μM 4-HNE 24 h. Format: cell-based, human. The protocol: FIG. 6. The protective effect of the 6-mer dS on ARPE-19 cells against 4-HNE induced apoptosis. Cells were deprived of serum for 24 h and then pretreated with 20 μM 6-mer dS or solvent prior to exposed with 25 μM 4-HNE for additional 24 h. Apoptosis was determined by TUNEL staining (green dots) and counter-stained with Hoechst 33258 (blue dots). (A) Representative graphs from three independent experiments are shown. (B) The percentage of cell death was quantified by dividing the number of TUNEL-positive cells to a population of 2000 counted cells per condition. TUNEL, terminal deoxynucleotidyl transferase-mediated dUTP nick end-labeling. ^aP<0.00003 versus solvent-treated cells. ^bP<0.0006 versus solvent/4-HNE-treated cells.
Reference is made to FIG. 6, which depicts the protective effect of 6-mer dS or 6-mer dE on 4-hydroxy-2-nonenal (4-HNE) induced apoptosis of ARPE-19 cells. 4-hydroxy-2-nonenal (4-HNE) is a product of lipid oxidation, and is also considered as one of the most formidable reactive aldehydes capable of forming adduct with various cellular targets, particularly proteins involve in redox signaling.

Turning to “NH2-(D-Ser)-Leu-Gly-Ala-Glu-COOH (SLGAE; HELM PEPTIDE1{[dS].L.G.A.E}$$$$V2.0; SMILES CC(C)C[C@H](NC(=O)[C@H](N)CO)C(=O)NCC(=O)N[C@@H](C)C(=O)N[C@@H](CCC(=O)O)C(=O)O) [5-mer dS]”, the “protective effect on Neuro-2a cells (neuroprotective activity), in words” value with Neuro-2a cells is “lacks any significant neuroprotective activity”. For the same substance, in the experiment with STAT3, the “STAT3 phosphorylation (immunoblot)” value was “possessed no such effect”.
Regarding “NH2-Ser-Leu-Gly-Ala-Glu-Gln-COOH ([dS]LGAEQ; not fully specified (N-terminus, C-terminus); printed as NH2-Ser-Leu-Gly-Ala-Glu-Gln-COOH) [Peptide 6-mer]”, the “4-HNE induced apoptosis (TUNEL), in words” value in the experiment with ARPE-19 cells is 6-mer dS being more effective than the 6-mer.

The values above are taken from US12221494B2, “Short synthetic peptides and their uses for treating retinal degenerative diseases and/or tissue injuries” (MacKay Memorial Hospital, priority 2019, dated 2025).
